# Data as given in ChEMBL document CHEMBL3603734, “Design and biological evaluation of novel quinolone-based metronidazole derivatives as potent Cu(2+) mediated DNA-targeting antibacterial agents” (Bioorg Med Chem Lett, 2015).
# Assays:
# [1] = test system: Staphylococcus aureus; test: Antibacterial activity against Staphylococcus aureus ATCC 25923 after 24 hrs by microbroth dilution method; format: functional; details: ATCC 25923, 24 h
# [2] = test system: Aspergillus flavus; test: Antifungal activity against Aspergillus flavus ATCC 204304 after 24 hrs by microbroth dilution method; format: functional; details: ATCC 204304, 24 h
# [3] = Ionization constant, pKa of the compound by UV spectroscopic analysis; format: physicochemical
# [4] = test system: Saccharomyces cerevisiae; test: Antifungal activity against Saccharomyces cerevisiae ATCC 9763 after 24 hrs by microbroth dilution method; format: functional; details: ATCC 9763, 24 h
# [5] = test system: Bacillus; test: Antibacterial activity against Bacillus proteus ATCC 13315 after 24 hrs by microbroth dilution method; format: functional; details: ATCC 13315, 24 h
# [6] = test system: Salmonella enterica; test: Antibacterial activity against Salmonella enterica ATCC 14028 after 24 hrs by microbroth dilution method; format: functional; details: ATCC 14028, 24 h
# [7] = test system: Bacillus spizizenii; test: Antibacterial activity against Bacillus subtilis ATCC 6633 after 24 hrs by microbroth dilution method; format: functional; details: ATCC 6633, 24 h
# [8] = test system: Candida albicans; test: Antifungal activity against Candida albicans ATCC 10231 after 24 hrs by microbroth dilution method; format: functional; details: ATCC 10231, 24 h
# [9] = test system: Pseudomonas aeruginosa; test: Antibacterial activity against Pseudomonas aeruginosa ATCC 27853 after 24 hrs by microbroth dilution method; format: functional; details: ATCC 27853, 24 h
# [10] = test system: Escherichia coli; test: Antibacterial activity against Escherichia coli JM109 after 24 hrs by microbroth dilution method; format: functional; details: JM109, 24 h
# [11] = test system: Pichia norvegensis; test: Antifungal activity against Candida mycoderma ATCC 9888 after 24 hrs by microbroth dilution method; format: functional; details: ATCC 9888, 24 h
# [12] = test system: Staphylococcus aureus; test: Antibacterial activity against methicillin-resistant Staphylococcus aureus N315 after 24 hrs by microbroth dilution method; format: functional; details: N315, 24 h
# [13] = test system: Micrococcus luteus; test: Antibacterial activity against Micrococcus luteus ATCC 4698 after 24 hrs by microbroth dilution method; format: functional; details: NCTC 2665, 24 h
# [14] = test system: Cyberlindnera jadinii; test: Antifungal activity against Candida utilis ATCC 9950 after 24 hrs by microbroth dilution method; format: functional; details: Williopsis jadinii, ATCC 9950, 24 h
SMILES,MIC [1],MIC [2],pKa [3],MIC [4],MIC [5],MIC [6],MIC [7],MIC [8],MIC [9],MIC [10],MIC [11],MIC [12],MIC [13],MIC [14]
CCn1cc(C(=O)O)c(=O)c2cc(F)c(N3CCN(CC(O)Cn4c([N+](=O)[O-])cnc4C)CC3)cc21 (centres undefined),16 µg/mL,32 µg/mL,6.57,32 µg/mL,16 µg/mL,16 µg/mL,16 µg/mL,128 µg/mL,2 µg/mL,32 µg/mL,64 µg/mL,4 µg/mL,16 µg/mL,64 µg/mL
CCn1cc(C(=O)O)c(=O)c2cc(F)c(N3CCN(CC4CO4)CC3)cc21 (centres undefined),8 µg/mL,1 µg/mL,,1 µg/mL,4 µg/mL,16 µg/mL,64 µg/mL,4 µg/mL,16 µg/mL,2 µg/mL,1 µg/mL,2 µg/mL,8 µg/mL,8 µg/mL
CCn1cc(C(=O)O)c(=O)c2cc(F)c(N3CCN(CC(O)Cn4c(C)nc(N5CCOCC5)c4[N+](=O)[O-])CC3)cc21 (centres undefined),32 µg/mL,16 µg/mL,6.64,16 µg/mL,32 µg/mL,32 µg/mL,16 µg/mL,16 µg/mL,2 µg/mL,64 µg/mL,64 µg/mL,4 µg/mL,8 µg/mL,16 µg/mL
CCn1cc(C(=O)O)c(=O)c2cc(F)c(N3CCNCC3)cc21 [NORFLOXACIN],2 µg/mL,,,,8 µg/mL,1 µg/mL,1 µg/mL,,4 µg/mL,2 µg/mL,,2 µg/mL,2 µg/mL,
Cc1nc(N2CCCCC2)c([N+](=O)[O-])n1CC(O)CN1CCN(c2cc3c(cc2F)c(=O)c(C(=O)O)cn3C2CC2)CC1 (centres undefined),128 µg/mL,8 µg/mL,6.9,64 µg/mL,128 µg/mL,64 µg/mL,32 µg/mL,64 µg/mL,1 µg/mL,128 µg/mL,64 µg/mL,32 µg/mL,64 µg/mL,32 µg/mL
O=C(O)c1cn(C2CC2)c2cc(N3CCNCC3)c(F)cc2c1=O [CIPROFLOXACIN],,,,,1 µg/mL,1 µg/mL,1 µg/mL,,1 µg/mL,,,,,
Cc1nc(N2CCCC2)c([N+](=O)[O-])n1CC(O)CNC1CCN(c2c(F)cc3c(=O)c(C(=O)O)cn(C4CC4)c3c2Cl)C1 (centres undefined),1 µg/mL,2 µg/mL,6.54,4 µg/mL,0.5 µg/mL,8 µg/mL,1 µg/mL,2 µg/mL,0.5 µg/mL,8 µg/mL,4 µg/mL,1 µg/mL,4 µg/mL,1 µg/mL
Cc1nc(N2CCCCC2)c([N+](=O)[O-])n1CC(O)CNC1CCN(c2c(F)cc3c(=O)c(C(=O)O)cn(C4CC4)c3c2Cl)C1 (centres undefined),8 µg/mL,4 µg/mL,6.69,8 µg/mL,1 µg/mL,16 µg/mL,8 µg/mL,4 µg/mL,1 µg/mL,32 µg/mL,8 µg/mL,2 µg/mL,16 µg/mL,2 µg/mL
Cc1ncc([N+](=O)[O-])n1CC(O)CN1CCN(c2cc3c(cc2F)c(=O)c(C(=O)O)cn3C2CC2)CC1 (centres undefined),16 µg/mL,16 µg/mL,6.67,32 µg/mL,4 µg/mL,4 µg/mL,4 µg/mL,128 µg/mL,0.5 µg/mL,16 µg/mL,64 µg/mL,2 µg/mL,8 µg/mL,32 µg/mL
